Like-named read-outs stand apart in the source and are kept apart here.
How the values were obtained:
[1] = system: apChromatin (depurinated chicken erythrocyte nuclear chromatin); experiment: Acridine orange staining after acid hydrolysis of dsDNA to apurinic acid, fluorescence microscopy; assay type: binding
Experimental: Depurination of dsDNA within the nuclear chromatin of chicken erythrocytes was accomplished by using a modification of the Feulgen method (Feulgen and Rossenbeck, 1924). Specifically, the nucleated chicken erythrocyte slide preparations were rinsed in a 1 N solution of HCl at room temperature for 60 seconds. This was followed by placement of the slide in a pre-heated (55° C.) solution of 1 N HCl for 10 minutes under static conditions followed by several rinses in distilled water at room temperature. Slides were allowed to dry at room temperature then stained with AO at two different concentrations, one at 5 mM and the other at 10 μM for 15 min and 2 min, respectively. The depurination of DNA was expected to remove the site on the DNA polymer where AO intercalation can occur.
Solutions of AO were prepared at 5 mM and 10 μM concentrations in distilled water. […] Processed slides were stored in the dark then read and photomicrographs taken (Zeiss Model 63 Microscope, 1600 ASA Kodak film) soon after removal from the dark to avoid photobleaching.
In the example shown in Table 4-1, the chicken erythrocytes were smeared and dried on a microscope slide prior to exposure to two different concentrations of AO (10 μM and 5 mM), rinsed with distilled water, and allowed to dry. Erythrocytes were examined with fluorescence microscopy and the color of the nuclei recorded. […]

[2] = Acridine orange self-association (AO-AO dimer), absorbance; assay type: binding
Experimental: Association constants were calculated using a modification of an equation described by Zaini et al. (1999) to determine equilibrium constants for weakly bound complexes by absorbance spectrophotometry. By definition K=Xd/(Xm* Xm), where K is the binding constant Kassoc, Xd is the concentration of the AO dimer and Xm is the concentration of the AO monomer. Conservation of mass gives Xt=Xm+2*Xd, where Xt is the total concentration of AO in solution. Rearranging the conservation of mass equation gives Xm=Xt−2*Xd, and substituting into the equation for Kassoc and rearranging gives Equation 4: Kassoc(Xt*Xt−4*Xt*Xd+4*Xd*Xd)−Xd=0 EQUATION 4:
Rearranging gives: Xd*Xd−(Xt+1/(4*.Kassoc)*Xd+Xt*Xt/4=0 EQUATION5:
Applying the quadratic formula (X=[−B±SQRT(B^2−4AC]/2A) to Equation 3-5 and taking a physically reasonable root gives Equation 3-6: Xd=[Xt+1/(4*K)−SQRT(Xt/(2*K)+1/[…])]/2 EQUATION 6:
Where SQRT ( ) indicates taking the square root of the content of the parentheses. The fluorescence values at λem 530 nm (F530) is a function of Xt and F530=Xd*ε, where “ε” is the fluorescence yield of the dimer. The equation was solved by non-linear least squares using Prism™ software and binding constants determined. […] Fluorescence values (fi) are reported as raw data normalized to scale and not adjusted by a dilution factor following aliquot additions. Absorbance data taken at 468 nm was also used to calculate the Kassoc for the AO-AO dimer using Equation 6.
In the example shown in FIG. 3-1A, absorbance was scanned between 400 nm and 550 nm over a range of AO concentrations from 2.5 μM to 20 μM in a 5 mM solution of HEPES buffer at pH 7.0. […] Note that the absorbance at 492 nm (A492) is indicative of the concentration of the AO monomer, whereas the absorbance at 468 nm (A468) is indicative of the concentration of the AO-AO dimer (Kapuscinski and Kimmel, 1993). […]
The absorbance was scanned between 410 nm and 540 nm over a range of AO concentrations from 10 μM-45 μM in a 5 mM solution of […] buffer at pH 7.0 in the presence of 150 mM of NaCl. […]

[3] = AO-AO, AO [20 μM], Kapuscinski & Kimmel, 1993, cited from earlier work
[4] = system: chicken erythrocyte nuclear chromatin; experiment: Removal of acridine orange from stained chicken erythrocyte nuclear chromatin by xanthine rinse, fluorescence microscopy; details: slides stained with 10 mM AO; rinse with 50 mM for 10 minutes
[5] = AO-CAF, cited from earlier work
[6] = Absorbance binding spectra of doxorubicin titrated with caffeine or chlorophyllin; details: 10 μM doxorubicin

CN(C)c1ccc2cc3ccc(N(C)C)cc3nc2c1.Cl [AO, 3,6-bis[dimethylamino]acridine hydrochloride]
Fluorescent Color ([1]; AO 10 μM): No Color | Fluorescent Color ([1]; AO 5 mM): Red | K ± S.D. ([2]; Absorbance plus NaCl, AO [10-45 μM]): 47,510 ± 2,420 M^−1 | K ± S.D. ([2]; Absorbance, AO [2.5-20 μM]): 46,840 ± 5,967 M^−1 | K ± S.D. ([2]; Absorbance, AO [10-80 μM]): 49,530 ± 2,953 M^−1 | K ± S.D. ([3]; Absorbance (mathematical model)): 29,100 M^−1 | K ± S.D. ([3]; Absorbance plus NaCl 150 mM): 42,500 M^−1

Cn1c(=O)c2c(ncn2C)n(C)c1=O [1,3,7-trimethyl xanthine (caffeine), 1,3,7-trimethyl xanthine]
fluorescence intensity after rinse [4]: reduced the fluorescence intensity to background level | K ± S.D. ([5]; Absorbance plus NaCl 150 mM, AO [20 μM], CAF [1-2000 μM], Kapuscinski & Kimmel, 1993): 169 ± 9 M⁻¹ | K ± S.D. ([5]; Absorbance, AO [10 μM], CAF [1-5000 μM], Larsen et al., 1996): 258 ± 5 M⁻¹ | K ± S.D. ([5]; Absorbance, AO [20 μM], CAF [1-2000 μM], Kapuscinski & Kimmel, 1993): 258 ± 7 M⁻¹ | binding to doxorubicin [6]: binds with doxorubicin
